From patent publication US11414374B2, “Crystalline forms of vilanterol trifenatate and processes for their preparation” (Hovione Scientia Limited, priority 2017, dated 2022)
Converted amounts (≈) assume the structure as drawn. Read-outs that look alike come from different tables or passages of the source.

Columns and labels:
Assay type in all cases: physicochemical
[1] = Dynamic vapor sorption (DVS) analysis / hygroscopicity (EP 7.0 classification)
Experimental: The hygroscopicity value is directly obtained from the sorption row at 80% RH, cycle 1.
Hygroscopicity of a sample of each of new form II and comparative form I was determined using the protocol provided below in conditions of 80% RH and 25° C.
The sample was subjected to DVS measuring using SMS-DVS intrinsic. The kinetic moisture sorption measurement was performed at 25° C. and in a RH % range described in the following: • From 40% RH to 90% RH • Form 90% RH to 0% RH • From 0% RH to 90% RH • From 90% RH to 0% RH
The sample was analyzed by XRPD after the analysis.
The hygroscopicity was calculated using the following equation: % Weight Change=[(W2−W1)/W1]*100 W1: weight of sample at the start of the experiment (25° C. and 40% RH) W2: weight of sample at 25° C. and 80% RH in the first absorption cycle

[2] = Storage stability of exposed powder at 25° C. and 60% RH for seven days, compared by XRPD; details: 60% RH and 25° C. for 7 days, exposed powder
Experimental: Approximately 30 mg of exposed powder of comparative form 1 and new forms II and III, respectively, were stored at 25′C and 60% RH for seven days. Each powder was then analyzed by XRPD and its diffraction pattern was compared with that of untreated sample.

[3] = Visual solubility in differing solvents (European Pharmacopeia 6.0 section 5.11); details: for solubility at 15 min: 25 °C, organic solvent or mixture, thermodynamic from solid
Experimental: Visual solubility of certain forms (compounds) in differing solvents was assessed according to the procedure described in the European Pharmacopeia 6.0 section 5.11. p. The compound was shaken vigorously for 1 min and placed in a constant temperature device for 15 min at 25.0±0.5° C. If the compound was not completely dissolved, the shaking was repeated for 1 min and the tube placed in a constant temperature device for 15 min. 50 mg of compound was weighed in a stoppered tube, 0.05 mL of the solvent added and the Dissolving Procedure (see above) followed. If the compound was completely dissolved, it is very soluble. If the compound was not completely dissolved, a further 0.45 mL of the solvent was added and the Dissolving Procedure (see above) followed. […] If the compound was still not completely dissolved, still further 1.0 mL of the solvent was added and the Dissolving Procedure (see above) followed. If the compound was completely dissolved, it is soluble. If the compound was still not completely dissolved, another 3.5 mL of the solvent was added and the Dissolving Procedure (see above) followed. […] If the compound was still not completely dissolved, the compound is slightly soluble or very slightly soluble. In this case, and the suspension was heated up to the boiling point (max 80° C.) under stirring to verify the solubility at high temperature. The hot solution was afterwards cooled to room temperature to observe whether the compound precipitates. If the compound at room temperature was completely dissolved, it is soluble at high temperature. [table]

[4] = Micronization in fluid energy jet mill: particle size distribution and XRPD of product
Description: Vilanterol trifenatate form II is fed to a fluid energy jet mill at 10-100 g/h, operated with N2 at a pressure of 1 to 8 bar for the venturi and a pressure of 1 to 8 bar for the ring.

[5] = DSC - differential scanning calorimetry; details: for DSC (onset) endo. degradation: endothermic event: degradation; for DSC (onset) endo. melting: endothermic event: melting; for DSC (onset) endo. solvent loss: endothermic event: solvent loss
Experimental: The analysis was carried out using a DSC Q200 TA instruments equipped with a refrigerator cooling system (RCS40) and autosampler. The sample was weighed in an aluminum hermetic pan with pinhole. The analysis was performed heating the sample from 25° C. to 350° C. at 10° C./min.

[6] = TGA / TGA-EGA thermogravimetric analysis with evolved gas analysis; details: for EGA: evolved solvent identified; for TGA overall weight loss: overall loss of the named solvent(s)
Experimental: The analysis was carried out using the Mettler Toledo TGA/DSC1. The sample was weighed in an aluminum pan hermetically sealed with an aluminum pierced cover. The analysis was performed heating the sample from 25° C. to 320° C. at 10° C./min. TGA-FTIR coupled with Thermo Nicoled is 10 spectometer. The analysis was carried out using the mettler toledo TGA/DSC1. The sample was weighed in an aluminum pan hermetically sealed with an aluminum pierced cover. The analysis was performed heating the sample from 25° C. to 320° C. at 10° C./min. The evolved gas is compared with ft-ir spectra database for identification.

[7] = Stability test (exposed sample 16 h), form by XRPD; details: resulting form
[8] = Stability test (sealed vial 18 h), form by XRPD; details: resulting form

## OCc1cc([C@@H](O)CNCCCCCCOCCOCc2c(Cl)cccc2Cl)ccc1O [form I, 4-((1R)-2-((6-(2-((2,6-Dichlorophenyl)methoxy)ethoxy)hexyl)amino)-1-hydroxyethyl)-2-(hydroxymethyl)phenol triphenylacetate, reference compound]
[1]; 80% RH and 25° C.
  hygroscopicity classification according to the European Pharmacopoeia (EP, version 7.0): non-hygroscopic
[1]; 80% RH and 25° C., first sorption cycle, relative to 40% RH
  mass increase by dynamic vapor sorption analysis (hygroscopicity): 0.19%
[1]; XRPD after DVS analysis, compared with untreated sample
  stability / XRPD pattern after DVS analysis: showed stability after DVS analysis
[2]
  modifications in XRPD pattern after storage (structural stability): No significant modifications in XRPD pattern
[3]; 1,4-dioxane at 25° C.
  visual solubility in 1,4-dioxane: freely soluble (a further 0.45 mL of the solvent was added and the Dissolving Procedure (see above) followed. If the compound was completely dissolved, it is freely soluble.)
[3]; ethanol, ethanol at 25° C., read-out: visual solubility in ethanol
  solubility at 15 min: 10 to 33 mg/mL (≈ 20.6 to 67.8 mM)
[3]; methanol, methanol at 25° C., read-out: visual solubility in methanol
  solubility at 15 min: 33 to 100 mg/mL (≈ 67.8 to 206 mM)
[3]; water at 75° C.
  visual solubility in water: insoluble
[4]; after fluid energy jet milling
  XRPD of micronized product versus starting material: identical to that of the starting material
[4]; fluid energy jet mill, N2
  particle size distribution Dv50 after micronization: 4.2 μm
  particle size distribution Dv90 after micronization: 9.6 μm

## OCc1cc([C@@H](O)CNCCCCCCOCCOCc2c(Cl)cccc2Cl)ccc1O [form IV, vilanterol trifenatate]
[5]; listed as Form 4
  DSC (onset) endo. degradation: endo. 189 °C degradation
  DSC (onset) endo. melting: endo. 76 °C melting
[6]; listed as Form 4
  EGA: Cyclohexane
  TGA overall weight loss: overall loss of 40% w/w/
[7]; listed as Form 4
  Stability test (exposed sample 16 h): Form 2
[8]; listed as Form 4
  Stability test (sealed vial 18 h): Form 12

## OCc1cc([C@@H](O)CNCCCCCCOCCOCc2c(Cl)cccc2Cl)ccc1O [form V, vilanterol trifenatate]
[5]; endothermic event: Form 1 melting, listed as Form 5
  DSC (onset) endo. Form 1 melting: endo. 134 °C Form 1
[5]; listed as Form 5
  DSC (onset) endo. degradation: endo. 188 °C degradation
  DSC (onset) endo. solvent loss: endo. 55-100 °C solvent loss
[6]; listed as Form 5
  EGA: Methylcyclohexane
[7]; listed as Form 5
  Stability test (exposed sample 16 h): Form 2
[8]; listed as Form 5
  Stability test (sealed vial 18 h): Strong crystanllinity

## OCc1cc([C@@H](O)CNCCCCCCOCCOCc2c(Cl)cccc2Cl)ccc1O [form XIII, vilanterol trifenatate]
[5]; listed as Form 13
  DSC (onset) endo. degradation: endo. 189 °C
  DSC (onset) endo. melting: endo. 105 °C
[5]; exothermic event: recrystallization
  DSC (onset) exo. recrystallization: exo. 93 °C
[6]; listed as Form 13
  TGA overall weight loss: One loss of 34% w/w
[7]; listed as Form 13
  Stability test (exposed sample 16 h): Form 12
[8]; listed as Form 13
  Stability test (sealed vial 18 h): Form 12 (almost

## OCc1cc([C@@H](O)CNCCCCCCOCCOCc2c(Cl)cccc2Cl)ccc1O [form XIV, vilanterol trifenatate]
[5]; endothermic event: solvent loss + melting (Form 6: + Form 2 melting; Form 14: + Form 3 melting), listed as Form 14
  DSC (onset) endo. solvent loss + melting: endo. 80 °C solvent
[5]; listed as Form 14
  DSC (onset) endo. solvent loss: endo. 58 °C solvent loss
[6]; listed as Form 14
  EGA: Methylcyclohexane
  TGA overall weight loss: loss of 26% w/w
[7]; listed as Form 14
  Stability test (exposed sample 16 h): Form 3
[8]; listed as Form 14
  Stability test (sealed vial 18 h): Form 3 (almost
